Results from ChEMBL document CHEMBL1133903, “Thrombin receptor (PAR-1) antagonists. Solid-phase synthesis of indole-based peptide mimetics by anchoring to a secondary amide” (Bioorg Med Chem Lett, 2001).

How the values were obtained:
Homo sapiens [1] = species on record: Homo sapiens; assay: In vitro inhibition of human platelet aggregation induced by 3 ug/ml collagen.; format: functional
Homo sapiens [2] = species on record: Homo sapiens; assay: In vitro inhibition of human platelet aggregation induced by thromboxane mimetic U-46,619 at 0.3 uM.; format: functional, organism-based
[3] = target: T1, Proteinase-activated receptor 1 (Homo sapiens, UniProt P25116); assay: In vitro displacement of [3H]S-(p-F-Phe)-homoarginine-K Y-NH2 (at a concentration of 10 nM) from thrombin receptor (PAR-1) on the membranes of CHRF-288-11 cells
T1 sequence (P25116 whole entry): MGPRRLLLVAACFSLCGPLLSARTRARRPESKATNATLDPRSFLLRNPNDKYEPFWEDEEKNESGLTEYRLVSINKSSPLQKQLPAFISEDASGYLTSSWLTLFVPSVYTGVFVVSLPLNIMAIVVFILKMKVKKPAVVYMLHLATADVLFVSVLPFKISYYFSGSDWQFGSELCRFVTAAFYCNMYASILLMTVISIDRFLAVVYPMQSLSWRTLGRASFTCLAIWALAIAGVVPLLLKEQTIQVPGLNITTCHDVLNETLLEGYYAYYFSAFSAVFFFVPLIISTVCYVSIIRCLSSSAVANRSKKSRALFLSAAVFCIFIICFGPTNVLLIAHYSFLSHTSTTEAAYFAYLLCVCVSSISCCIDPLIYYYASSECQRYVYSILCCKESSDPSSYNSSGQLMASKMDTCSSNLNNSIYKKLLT

Homo sapiens [4] = species on record: Homo sapiens; assay: In vitro inhibition of human platelet aggregation induced by collagen (at a concentration of 3 ug/mL); IA means Inactive at 50 uM; format: functional
Homo sapiens [5] = species on record: Homo sapiens; assay: In vitro inhibition of human platelet aggregation induced by thromboxane mimetic U-46,619 (at a concentration of 0.3 uM); format: functional
Homo sapiens [6] = species on record: Homo sapiens; assay: In vitro inhibition of human platelet aggregation induced by SFLLRN-NH2 (at a concentration of 2 uM); IA means Inactive at 50 uM; format: functional
Homo sapiens [7] = species on record: Homo sapiens; assay: In vitro inhibition of human platelet aggregation induced by collagen (at a concentration of 3 ug/mL); In active at 50 uM concentration; format: functional
Homo sapiens [8] = species on record: Homo sapiens; assay: In vitro inhibition of human platelet aggregation induced by thromboxane mimetic U-46,619 (at a concentration of 0.3 uM concentration; format: functional

Structure (SMILES)	IC50 (Homo sapiens [1]) [µM]	IC50 (Homo sapiens [2])	IC50 [3] [nM]	IC50 (Homo sapiens [4])	IC50 (Homo sapiens [5]) [µM]	IC50 (Homo sapiens [6])	IC50 (Homo sapiens [7])	IC50 (Homo sapiens [8])
Cc1ccccc1Cn1cc(CN2CCCC2)c2ccc(NC(=O)N[C@@H](Cc3ccc([N+](=O)[O-])cc3)C(=O)N[C@@H](CCCN=C(N)N)C(=O)NCc3ccccc3)cc21	20.6	Not Active	800					
COc1ccc(C[C@H](NC(=O)Nc2ccc3c(CN4CCCC4)cn(Cc4ccc(F)cc4)c3c2)C(=O)N[C@@H](CCCN=C(N)N)C(=O)NCc2ccccc2)cc1		Not Active	2200	Not Active				
COc1ccc(C[C@H](NC(=O)Nc2ccc3c(CN4CCCC4)cn(Cc4ccc(F)cc4)c3c2)C(=O)N[C@@H](CCCN=C(N)N)C(=O)NCCCc2ccccc2)cc1	16.1				21.4			
NC(=O)CCC(NC(=O)[C@H](Cc1ccc(F)c(F)c1)NC(=O)Nc1ccc2c(CN3CCCC3)cn(Cc3c(Cl)cccc3Cl)c2c1)C(=O)NCc1ccccc1 (some centres undefined)		Not Active	1800	Not Active				
COc1ccc(C[C@H](NC(=O)Nc2ccc3c(CN4CCCCC4)cn(Cc4ccc(OC(F)(F)F)cc4)c3c2)C(=O)N[C@@H](CCCNC(=N)N)C(=O)NCC2CCCCC2)cc1	33.1		5600		43.5			
COC(=O)c1ccc(Cn2cc(CN3CCCC3)c3ccc(NC(=O)N[C@@H](Cc4ccc(OC)cc4)C(=O)N[C@@H](CCCN=C(N)N)C(=O)NCC4CCCCC4)cc32)cc1		Not Active	3500	Not Active		Not Active		
COc1ccc(C[C@H](NC(=O)Nc2ccc3c(CN4CCCCC4)cn(Cc4ccc(F)cc4)c3c2)C(=O)N[C@@H](CCCN=C(N)N)C(=O)NCC2CCCCC2)cc1	26.1				26.2			
COc1ccc(C[C@H](NC(=O)Nc2ccc3c(CN4CCCC4)cn(Cc4ccc(OC(F)(F)F)cc4)c3c2)C(=O)N[C@@H](CCCNC(=N)N)C(=O)NCC2CCCCC2)cc1	40.4		2500		33			
N=C(N)NCCC[C@H](NC(=O)[C@H](Cc1ccc([N+](=O)[O-])cc1)NC(=O)Nc1ccc2c(CN3CCCC3)cn(Cc3ccc(F)cc3)c2c1)C(=O)NCc1ccccc1	16.5	Not Active	1100					
NCC(NC(=O)[C@H](Cc1ccc(F)c(F)c1)NC(=O)Nc1ccc2c(CN3CCCC3)cn(Cc3c(Cl)cccc3Cl)c2c1)C(=O)NCc1ccccc1 (some centres undefined)	36.9	Not Active	920					
N#Cc1ccc(C[C@H](NC(=O)Nc2ccc3c(CN4CCCC4)cn(Cc4c(Cl)cccc4Cl)c3c2)C(=O)N[C@@H](CCCNC(=N)N)C(=O)NCc2ccccc2)cc1		Not Active		Not Active				
O=C(Nc1ccc2c(CN3CCCC3)cn(Cc3c(Cl)cccc3Cl)c2c1)N[C@@H](Cc1ccc(F)c(F)c1)C(=O)NC(Cc1c[nH]cn1)C(=O)NCc1ccccc1 (some centres undefined)	34	Not Active	1300					
COc1ccc(C[C@H](NC(=O)Nc2ccc3c(CN4CCCCC4)cn(Cc4cccc(C)c4)c3c2)C(=O)N[C@@H](CCCNC(=N)N)C(=O)NCC2CCCCC2)cc1	27.5		3200		36.3			
NC(=O)NCCCC(NC(=O)[C@H](Cc1ccc(F)c(F)c1)NC(=O)Nc1ccc2c(CN3CCCC3)cn(Cc3c(Cl)cccc3Cl)c2c1)C(=O)NCc1ccccc1 (some centres undefined)		Not Active	240	Not Active				
CSCCC(NC(=O)[C@H](Cc1ccc(F)c(F)c1)NC(=O)Nc1ccc2c(CN3CCCC3)cn(Cc3c(Cl)cccc3Cl)c2c1)C(=O)NCc1ccccc1 (some centres undefined)		Not Active	11200	Not Active				
N=C(N)NCCC[C@H](NC(=O)[C@H](Cc1ccc(F)c(F)c1)NC(=O)Nc1ccc2c(CN3CCCC3)cn(Cc3c(Cl)cccc3Cl)c2c1)C(=O)NCc1ccccc1		Not Active	820	Not Active				
COc1ccc(C[C@H](NC(=O)Nc2ccc3c(CN4CCCC4)cn(Cc4ccccc4Cl)c3c2)C(=O)N[C@@H](CCCN=C(N)N)C(=O)NCCCc2ccccc2)cc1	12		380		44.4			
COc1ccc(C[C@H](NC(=O)Nc2ccc3c(CN4CCCCC4)cn(Cc4ccccc4C)c3c2)C(=O)N[C@@H](CCCN=C(N)N)C(=O)NCCCc2ccccc2)cc1	13	Not Active	730					
NCCC(NC(=O)[C@H](Cc1ccc(F)c(F)c1)NC(=O)Nc1ccc2c(CN3CCCC3)cn(Cc3c(Cl)cccc3Cl)c2c1)C(=O)NCc1ccccc1 (some centres undefined)			440				Not Active	Not Active
CCN(CC)Cc1cn(Cc2ccccc2C)c2cc(NC(=O)N[C@@H](Cc3ccc(OC)cc3)C(=O)N[C@@H](CCCN=C(N)N)C(=O)NCCCc3ccccc3)ccc12	17	Not Active	2500					
COc1ccc(C[C@H](NC(=O)Nc2ccc3c(CN4CCCC4)cn(Cc4ccccc4C)c3c2)C(=O)N[C@@H](CCCN=C(N)N)C(=O)NCCCc2ccccc2)cc1	11.9		1000		44.2			
COc1ccc(C[C@H](NC(=O)Nc2ccc3c(CN4CCCC4)cn(Cc4ccc(F)cc4)c3c2)C(=O)N[C@@H](CCCN=C(N)N)C(=O)NCC2CCCCC2)cc1	37.6		2600		12.5			
NCCCC[C@H](NC(=O)[C@H](Cc1ccc(F)c(F)c1)NC(=O)Nc1ccc2c(CN3CCCC3)cn(Cc3c(Cl)cccc3Cl)c2c1)C(=O)NCc1ccccc1	21.3		300		41.9			
CCN(CC)Cc1cn(Cc2cccc(C)c2)c2cc(NC(=O)N[C@@H](Cc3ccc(OC)cc3)C(=O)N[C@@H](CCCN=C(N)N)C(=O)NCCCc3ccccc3)ccc12	10.2	Not Active	2600					
Cc1ccccc1Cn1cc(CN2CCCC2)c2ccc(NC(=O)N[C@@H](Cc3ccc(C#N)cc3)C(=O)N[C@@H](CCCN=C(N)N)C(=O)NCc3ccccc3)cc21	25.9	Not Active	6400					
COc1ccc(C[C@H](NC(=O)Nc2ccc3c(CN4CCC4)cn(Cc4ccc(F)cc4)c3c2)C(=O)N[C@@H](CCCN=C(N)N)C(=O)NCc2ccccc2)cc1		Not Active		Not Active				
NCCC[C@H](NC(=O)[C@H](Cc1ccc(F)c(F)c1)NC(=O)Nc1ccc2c(CN3CCCC3)cn(Cc3c(Cl)cccc3Cl)c2c1)C(=O)NCc1ccccc1	15.7	Not Active	500					
CCN(CC)Cc1cn(Cc2ccc(F)cc2)c2cc(NC(=O)N[C@@H](Cc3ccc(OC)cc3)C(=O)N[C@@H](CCCN=C(N)N)C(=O)NCC3CCCCC3)ccc12	25.8		3100		39.5			
COc1ccc(C[C@H](NC(=O)Nc2ccc3c(CN4CCCC4)cn(Cc4c(Cl)cccc4Cl)c3c2)C(=O)N[C@@H](CCCNC(=N)N)C(=O)NCc2ccccc2)cc1 [RWJ-54003]	46.3	Not Active	1300					
